{"source": "patent US20170319256A1", "about": "“METHOD OF SELECTIVELY KILLING CANCER CELLS USING LOW-TEMPERATURE PLASMA JET DEVICE AND METHOD OF TREATING TUMORS USING THE SAME” (Dong-A University Research Foundation for Industry-Academy …, priority 2016, published 2017)", "key": {"A549 and SK-MEL2 cells": {"tested_on": "A549 and SK-MEL2 cells", "assay": "γH2AX phosphorylation immunofluorescence (marker for DNA breaks)", "format": "cell-based, human", "details": "FIG. 4A", "procedure": "(§1) Cells were treated using a previously reported plasma jet device. A typical operating condition of the pulsed-dc plasma jet has the applied voltage 1.6 kV, repetition frequency 50 kHz, and duty ratio 10%. The working gas (helium) and reactive gas (oxygen) flow rate were kept constant at 500 and 5 SCCM (SCCM denotes cubic centimeter per minute at standard temperature and pressure), respectively. The cells were cultured on 12-mm microscope cover glass coated with gelatin from porcine skin (Sigma-Aldrich) and were treated with helium generated-NTP with or without the flow of oxygen gas. The exposed cover glass was then transferred to 12-well plates containing fresh medium and incubated at 37° C. in a humidified incubator supplemented with 5% CO2. If necessary, the cells were treated with 5 or 10 μM of specific inhibitors targeting ATR (ETP46464), ATM (KU55933), DNA-PK (NU7026), or PARP1 (AZD2281) for 1 h before plasma treatment and kept until cell harvest. […]\n(§2) For immunofluorescence staining, cells were fixed with 4% formaldehyde (Sigma-Aldrich) for 10 min at room temperature and permeabilized with 0.5% Triton™ X-100 (Bio Basic). […] The images were captured using a fluorescence microscope (Nikon) equipped with the NIS-Elements 4.0 Nikon imaging software. For quantification, a minimum of 500 cells were analyzed from each of three independent experiments."}, "A549 and SKMEL2 cells": {"tested_on": "A549 and SKMEL2 cells", "assay": "CHK1 phosphorylation immunofluorescence after kinase inhibitor pretreatment and NTP or NTPO", "format": "cell-based, human", "details": "inhibitor pretreatment (5 or 10 μM, 1 h before plasma), followed by NTP or NTPO; FIG. 3A", "procedure": "as §1, §2"}}}
{"smiles": "O=C(c1cc(Cc2n[nH]c(=O)c3ccccc23)ccc1F)N1CCN(C(=O)C2CC2)CC1", "note": "[AZD2281, olaparib]", "values": [{"measurement": "γH2AX phosphorylation", "setting": "A549 and SK-MEL2 cells; PARP-1 inhibitor plus treatment of NTP or NTPO", "value": "significantly increased"}, {"measurement": "γH2AX phosphorylation", "setting": "A549 and SK-MEL2 cells; PARP-1 inhibitor, gas control", "value": "measured even in the case of gas control"}]}
{"smiles": "CC(C)(C#N)c1ccc(N2C(=O)OCc3cnc4ccc(-c5cnc6ccccc6c5)cc4c32)cc1", "note": "[ETP 46464]", "values": [{"measurement": "CHK1 phosphorylation", "setting": "A549 and SKMEL2 cells", "value": "phosphorylation was not shown"}]}
